Source: patent US4853403A, “3-phenylthiomethylstyrene derivative, process for preparing the same, and antiallergic agent and tyrosinekinase inhibiting agent containing the same” (Kanegafuchi Kagaku Kogyo Kabushiki Kaisha, priority 1985, dated 1989)
Read-outs that look alike come from different tables or passages of the source.

Columns and labels:
[1] = target: T1, epidermal growth factor acceptor-tyrosinekinase complex (Homo sapiens, UniProt P00533); experiment: Tyrosinekinase inhibitory activity (A-431 membrane specimen, EGF-stimulated, [γ-32P]ATP); assay type: biochemical, human (A-431 cell line derived from human cancerous cell); conditions: read-out: Inhibition rate (tyrosinekinase)
T1 construct: endogenous in cells; host or cells: A-431 (membrane specimen, not solubilized)
Method: Tyrosinekinase inhibitory activity of the compound of the present invention was measured by employing a method for measuring tyrosinekinase activity by G. Carpentor or by S. Cohen et al. [J. Biol. Chem., 254, 4884 (1979); J. Biol. Chem., 257, 1523 (1982)].
Cell line A-431 derived from human cancerous cell was cultured at 37° C. under the condition of 5% CO2 in Dulbecco's modified Eagle medium (made by DAINIPPON PHARMACEUTICAL CO., LTD.) containing 10% fetal bovine serum, 50 μg/ml of streptomycin, 50 IU/ml of penicillin G and 50 μg/ml of canamycin. The obtained cells were treated according to the above Cohen or Graham et al. to give membrane specimen containing epidermal growth factor acceptor-tyrosinekinase complex (hereinafter referred to as "membrane specimen"). The membrane specimen was employed in the following measurement without solubilization.
Sample dissolved in dimethylsulfoxide was added to a mixture of 20 mM of N-2-hydroxyethylpyperadino-N'-2-ethanesulfonate buffer (pH 7.4), 1 mM of MnCl2, 7.5 μg of bovine serum albumin and the membrane specimen (10 μg as protein). After incubation at 0° C. for 5 minutes, 100 ng of epidermal growth factor (hereinafter referred to as "EGF" was added and the mixture was further incubated at 0° C. for 15 minutes. [γ-^32 P]ATP (3000 Ci/mmol, 0.1 μCi) was added to make final volume of 70 μl. After incubation at 0° C. for 15 minutes, 50 μl of the reaction solution was soaked into Wattman 3 MM filter paper and immediately the reaction was stopped by 10% trichloroacetic acid-10 mM sodium pyrophosphate aqueous solution. The filter paper was sufficiently washed with the same solution and then washed with ethanol and dried. Radioactivity present in the filter paper was measured by liquid scintillation counter (A). Similarly, radioactivity was measured in case of the reaction without EGF (B), the reaction without the sample (C), and the reaction without both EGF and the sample (D) as a control.
Tyrosinekinase inhibition rate (%) was calculated by the following equation. [formula]

[2] = system: antigen-induced anaphylactic shock death; experiment: Protective effect against anaphylactic shock in actively sensitized guinea pigs; assay type: in vivo, guinea pig (male); conditions: Cavia porcellus, oral, 30 minutes before antigen inhalation, survival 90 minutes or more, read-out: Protecting Effect (Number of test animal survivied/Number of test animal) (converted)
Method: [III] Protective effect against anaphylactic shock in actively sensitized guinea pigs
Antigen-induced anaphylactic shock death was observed according to John P. Devlin [Pulmonary and Antiallergic Drugs, John Wiley & Sons, 155 (1985)].
Each 100 mg/kg of ovalbumin dissolved in physiological saline was injected into peritoneal cavity and into gluteus of male guinea pigs weighing 250 to 350 g. 3 Days later, the animals were further injected intraperitoneally with ovalbumin (100 mg/kg). Those animals were employed for testing 3 to 4 weeks after first sensitization. Actively sensitized guinea pigs were pretreated subcutaneously with pyrilamine (1 mg/kg, 30 min.) to suppress histamine-dependent response and with propanolol ([…], 10 min.) to enhance the response induced by other than histamine before the antigen.
The animal was placed in a desiccator with a capacity of about 5 l and 0.5% aqueous solution of ovalbumin was inhaled with ultrasonic type nebulizer for five minutes. Anaphylactic shock death was observed and the animals survived for 90 minutes or more after antigen were estimated to be protected. The compounds of the present invention and antiasmatic agent were administered orally 30 minutes before the antigen inhalation. The control received vehicle alone similarly.

[3] = system: homologous passive cutaneous anaphylaxis (PCA); experiment: Inhibitory activity against homologous passive cutaneous anaphylaxis (PCA) in rats; assay type: in vivo, rat (male Wistar); conditions: oral
Method: [II]Inhibitory activity against homologous passive cutaneous anaphylaxis (PCA) in rats
Antiserum was prepared according to I. Mota [Immunology, 7, 681(1964)] and the PCA reaction was conducted according to Maruyama et al. [Nippon yakurigakkaishi, 74, 179(1978)].
(1) Preparation of antiserum
An ovalbumin solution (2 mg/ml) was injected intramuscularly into both thighs of male Wistar rats weighing 200 to 260 g in a volume of 0.5 ml/100 g body weight, and pertussis vaccine (Bordetella pertussis, 2×10^10 /ml, Chibaken Kessei Kenkyujo) was intraperitoneally administered at 1 ml/rat. Twelve days later, blood was taken from posterior aorta under ether anesthesia and antiserum was stored at -80° C.
Group of 4 male Wistar rats weighing 180 to 210 g were employed. Back of the animals was shaved and each 0.05 ml of antiserum (1:32 dilution) was injected intradermally at four sites on the back. After 48 hours, 1 ml of a mixture of ovalbumin (1 mg/ml) and Evans blue (5 mg/ml) was injected intravenously into the tail. 30 Minutes later, the animals were killed under ether anesthesia. The blue-dyed area (mm^2) formed was measured and an inhibition rate(%) was calculated as compared with control.
Test compound suspended in a 2.5% acacia containing 0.2% Tween 80 was administered orally in a volume of 0.5 ml/100 g body weight 1 hour before the antigen. Tranilast was administered orally 30 minutes before the antigen.

[4] = system: SRS-A biosynthesis or release; experiment: SRS-A biosynthesis or release inhibitory activity (ovalbumin-challenged sensitized guinea pig lung fragments, bioassay on guinea pig ileum); assay type: cell-based, guinea pig (male Hartley); conditions: Cavia porcellus, read-out: Inhibition rate (SRS-A biosynthesis or release)
Method: [I] SRS-A biosynthesis or release inhibitory activity
SRS-A biosynthesis or release inhibitory activity was examined according to Koda et al. [Nippon yakurigakkaishi, 66, 194(1970)] and Kono-Watanabe et al. [J. Immunology, 125, 946(1980)].
Male Hartley guinea pigs weighing 350 to 450 g were sensitized by injecting once each 1 ml of an ovalbumin (100 mg/ml) into gluteus and peritoneal cavity. Four weeks after the injection, the animals were killed and then immediately the lung was perfused with cooled Tyrode's solution to remove blood. The lung was chopped into about 2 mm fragments and 500 mg of the fragments were suspended in 4.84 ml of Tyrode's solution, to which 0.01 ml of the test compound dissolved in dimethylsulfoxide (DMSO) was added. After incubation at 37° C. for 10 minutes, 0.15 ml of an ovalbumin (10 mg/ml) was added, followed by incubation at 37° C. for 20 minutes. In control, DMSO was added and the reaction was conducted in the same manner. The reaction mixture was filtered with gauze.
An amount of SRS-A in the filtrate was bioassayed using guinea pig ileum; i.e. the ileum (length: 2 to 3 cm) was suspended in Magnus tube containing aerated Tyrode's solution at 31° C. and, after the plateau of contraction was obtained, an amount of SRS-A in the above filtrate was bioassayed in the presence of 1 μM of atropine and 1 μM of pyrilamine. Inhibition rate (%) was calculated from a contraction in control as 100.

[5] = 100 mg/kg, 1 hour before the antigen

T1 sequence (P00533 25-1210): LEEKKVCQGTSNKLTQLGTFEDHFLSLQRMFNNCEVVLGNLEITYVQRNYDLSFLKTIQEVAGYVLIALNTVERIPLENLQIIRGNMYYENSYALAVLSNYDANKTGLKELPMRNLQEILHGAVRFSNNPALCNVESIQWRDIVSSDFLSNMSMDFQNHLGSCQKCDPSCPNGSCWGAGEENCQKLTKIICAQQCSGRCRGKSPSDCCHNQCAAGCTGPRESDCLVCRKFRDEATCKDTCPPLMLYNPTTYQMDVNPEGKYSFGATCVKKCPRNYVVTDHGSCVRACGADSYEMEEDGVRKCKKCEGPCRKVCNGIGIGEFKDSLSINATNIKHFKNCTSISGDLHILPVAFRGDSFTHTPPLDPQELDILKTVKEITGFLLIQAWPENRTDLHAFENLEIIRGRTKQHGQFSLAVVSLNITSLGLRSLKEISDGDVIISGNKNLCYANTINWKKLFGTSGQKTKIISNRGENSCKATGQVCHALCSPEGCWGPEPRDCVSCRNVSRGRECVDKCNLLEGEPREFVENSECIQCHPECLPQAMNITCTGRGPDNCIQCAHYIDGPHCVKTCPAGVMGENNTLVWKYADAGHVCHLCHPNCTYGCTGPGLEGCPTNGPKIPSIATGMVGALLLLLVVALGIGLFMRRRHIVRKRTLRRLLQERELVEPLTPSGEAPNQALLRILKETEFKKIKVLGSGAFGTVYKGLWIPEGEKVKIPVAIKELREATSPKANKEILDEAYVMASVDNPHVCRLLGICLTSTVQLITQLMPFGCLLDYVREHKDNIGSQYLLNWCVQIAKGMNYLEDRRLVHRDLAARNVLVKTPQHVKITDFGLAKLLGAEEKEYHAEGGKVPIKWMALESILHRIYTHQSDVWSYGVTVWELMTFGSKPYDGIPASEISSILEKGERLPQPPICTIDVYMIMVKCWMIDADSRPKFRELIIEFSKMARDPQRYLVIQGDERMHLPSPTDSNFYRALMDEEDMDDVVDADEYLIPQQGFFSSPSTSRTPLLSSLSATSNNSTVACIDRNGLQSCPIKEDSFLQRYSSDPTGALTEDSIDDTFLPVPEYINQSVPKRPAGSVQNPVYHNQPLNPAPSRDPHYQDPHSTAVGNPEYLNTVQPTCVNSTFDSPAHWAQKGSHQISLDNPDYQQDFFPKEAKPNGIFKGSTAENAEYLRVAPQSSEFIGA
T1 sequence (P01132 977-1029 partner limits assumed): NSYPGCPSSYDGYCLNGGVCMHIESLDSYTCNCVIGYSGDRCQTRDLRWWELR

Row | SMILES | inhibition at 10 µM ([1]; 10 μM) | responders at 100 mg/kg [2] | responders at 30 mg/kg [2] | other results
1 | CCOc1cc(C=C(C#N)C(N)=O)cc(CSc2ccc([N+](=O)[O-])cc2)c1O [III] | 42% | 25% |  | 
2 | CCOc1cc(C=C(C#N)C(N)=O)cc(CSc2ccc(OC)cc2)c1O [II] | 42% |  | 75% | 
3 | CCOc1cc(C=C(C#N)C(N)=O)cc(CSc2ccc(Br)cc2)c1O [IV] | 74% | 25% |  | 
4 | CCOc1cc(C=C(C#N)C(N)=O)cc(CSc2ccc(C)cc2)c1O [IX] | 58% |  | 50% | 
5 | CCOc1cc(C=C(C#N)C(N)=O)cc(CSc2ccccc2)c1O [I] | 100% | 40% |  | Inhibition rate (PCA reaction, blue-dyed area) [3, 5]: 21%; inhibition at 100 µM [1]: 100%; inhibition at 100 µM [4]: 92%
6 | CCOc1cc(C=C(C#N)C(N)=O)cc(CSc2cccc(OC)c2)c1O [VIII] | 72% | 25% |  | 
7 | CCOc1cc(C=C(C#N)C(N)=O)cc(CSc2ccccc2OC)c1O [VII] | 77% |  | 75% | 
8 | CCOc1cc(C=C(C#N)C(N)=O)cc(CSCCCc2ccccc2)c1O [VI] | 55% | 25% |  | 
9 | CCOc1cc(C=C(C#N)C(N)=O)cc(CSc2c(F)c(F)c(F)c(F)c2F)c1O [V] | 60% |  | 50% | 
10 | CCOc1cc(C=C(C#N)C(N)=O)cc(CSc2ccccc2)c1OC [XIII] | 31% |  | 50% | 
11 | COc1cc(C=C(C#N)C(N)=O)cc(CSc2ccccc2)c1O [XII] |  |  | 50% | inhibition at 10 µM [1]: 86%
12 | CCOc1cc(C=C(C#N)C(N)=O)cc(CSc2ccc(Cl)cc2)c1O [XIV] | 29% |  | 100% | 
13 | N#CC(=Cc1cc(O)c(O)c(CSc2ccccc2)c1)C(N)=O [XIX] | 100% | 25% |  | 
14 | CCOc1cc(C=C(C#N)C(N)=O)cc(CSc2cccc(Cl)c2)c1O [XI] | 54% | 25% |  | 
15 | CCOc1cc(C=C(C#N)C(N)=O)cc(CSc2ccc(C(C)(C)C)cc2)c1O [XVIII] | 37% |  | 75% | 
16 | CCOc1cc(C=C(C#N)C(N)=O)cc(CSc2ccccc2)c1OC(C)=O [XVII] | 36% | 25% |  | 
17 | CCOc1cc(C=C(C#N)C(N)=O)cc(CSc2ccccc2)c1OC(=O)c1ccccc1 [XVI] | 40% | 25% |  | 
18 | CCOc1cc(C=C(C#N)C(N)=O)cc(CSc2ccc(Cl)c(Cl)c2)c1O [XV] | 69% |  | 100% | 

Row | SMILES | inhibition at 10 µM ([1]; 10 μM) | responders at 100 mg/kg [2] | responders at 30 mg/kg [2] | other results
19 | CCOC(=O)C(=Cc1cc(CSc2ccc(C(C)(C)C)cc2)c(O)c(OCC)c1)S(C)(=O)=O [XXIII] | 40% | 25% |  | 
20 | CCOC(=O)C(=Cc1cc(CSc2ccccc2)c(O)c(OCC)c1)S(C)(=O)=O [XXII] | 64% | 20% |  | Inhibition rate (PCA reaction, blue-dyed area) [3, 5]: 26%; inhibition at 100 µM [1]: 80%; inhibition at 100 µM [4]: 27%
21 | CCOc1cc(C=C2CCOC2=O)cc(CSc2ccccc2)c1O [XXIV] | 33% | 20% |  | Inhibition rate (PCA reaction, blue-dyed area) [3, 5]: 26%; inhibition at 100 µM [1]: 50%; inhibition at 100 µM [4]: 28%
22 | CCOc1cc(C=C2CCNC2=O)cc(CSc2ccc(OC)cc2)c1OC [XXIX] | 30% | 25% |  | 
23 | CCOc1cc(C=C(C#N)C(N)=O)cc(CSc2ccccc2C(=O)OC)c1OC(C)=O [XXI] | 31% | 25% |  | 
24 | COc1cc(C=C2CCNC2=O)cc(CSc2ccc(C)cc2)c1O [XXVIII] | 55% | 25% |  | 
25 | O=C1OCCC1=Cc1cc(O)c(O)c(CSc2ccc([N+](=O)[O-])cc2)c1 [XXVI] | 35% | 25% |  | 
26 | CCOc1cc(C=C2CCOC2=O)cc(CSc2ccc(Cl)c(Cl)c2)c1O [XXV] | 27% |  | 75% | 
27 | CCOc1cc(C=C2C(=O)NN(c3ccccc3)C2=O)cc(CSc2ccc(Br)cc2)c1O [XXXIII] | 71% |  | 75% | 
28 | COc1cc(C=C2C(=O)NN(c3ccccc3)C2=O)cc(CSc2ccccc2)c1O [XXXII] | 100% | 25% |  | 
29 | O=C1NN(c2ccccc2)C(=O)C1=Cc1cc(O)c(O)c(CSc2ccccc2)c1 [XXXIV] | 96% |  | 50% | 
30 | CCOc1cc(C=C2C(=O)NN(c3ccccc3)C2=O)cc(CSc2ccc(Cl)cc2)c1O [XXXVI] | 91% | 25% |  | 
31 | CCCCOc1cc(C=C2C(=O)NN(c3ccccc3)C2=O)cc(CSc2ccccc2)c1O [XXXV] | 100% | 25% |  | 
32 | CCOc1cc(C=C2CCNC2=O)cc(CSc2ccccc2)c1OC(=O)c1ccccc1 [XXX] | 32% |  | 50% | 
33 | CCOc1cc(C=C(C#N)C(N)=O)cc(CSc2ccc(O)cc2)c1O [XX] | 91% | 25% |  | 
34 | CCOc1cc(C=C(C#N)C(N)=O)cc(CSc2c(Cl)cccc2Cl)c1O [X] | 44% |  | 75% | 
35 | Cn1c(=O)c2[nH]cnc2n(C)c1=O [theophylline, reference compound] |  |  | 50% | 
36 | COc1ccc(/C=C/C(=O)Nc2ccccc2C(=O)O)cc1OC [tranilast, reference compound] |  | 0% |  | Inhibition rate (PCA reaction, blue-dyed area) ([3]; 300 mg/kg, 30 minutes before the antigen (tranilast)): 40%
